Key:
[1] = biological target: human VEGF receptor (VEGFR-2) (Homo sapiens (Human), UniProt P35968); test: VEGFR2 Kinase Assay (Enzymic VEGFR2); format: biochemical; conditions: His-VEGFR-2 cytoplasmic domain, 3.6 µM ATP
Method: VEGFR2 Kinase Assay The cytoplasmic domain of the human VEGF receptor (VEGFR-2) was expressed as a Histidine-tagged fusion protein following infection of insect cells using an His engineered baculovirus. […] Kinase assays were performed in 96 well microtiter plates that were coated overnight with 30 µg of poly-Glu-[…]:1) in 10 mM Phosphate Buffered Saline (PBS), pH 7.2-7.4. The plates were incubated with 1% BSA and then washed four times with PBS prior to starting the reaction. […] Reactions were initiated by the addition 0.5 ng of purified protein. Following a ten minute incubation at 25° C., the reactions were washed four times with PBS containing 0.05% Tween-20. 100 µl of a monoclonal anti-phosphotyrosine antibody-peroxidase conjugate was diluted 1:10000 in PBS-Tween-20 and added to the wells for 30 minutes. Following four washes with PBS-Tween-20, 100 µl of 0-phenylenediamine Dihydrochloride in Phosphate-citrate buffer, containing urea hydrogen peroxide, was added to the wells for 7 minutes as a colorimetric substrate for the peroxidase. […] IC50 values for compound inhibition were calculated directly from graphs of optical density (arbitrary units) versus compound concentration following subtraction of blank values.

VEGFR2 = VEGFR2 (Homo sapiens (Human), UniProt P35968); test: VEGF Stimulated Ca++ Signal In Vitro (Cellular VEGFR2, FLIPR); format: cell-based; conditions: HUVEC, VEGF stimulation (5 ng/mL), intracellular calcium
PDGFRβ = PDGFRβ (Homo sapiens (Human), UniProt P09619); test: Enzymic PDGFRβ; format: biochemical
PDGFRβ, sequence (P09619 33-1106, species assumed): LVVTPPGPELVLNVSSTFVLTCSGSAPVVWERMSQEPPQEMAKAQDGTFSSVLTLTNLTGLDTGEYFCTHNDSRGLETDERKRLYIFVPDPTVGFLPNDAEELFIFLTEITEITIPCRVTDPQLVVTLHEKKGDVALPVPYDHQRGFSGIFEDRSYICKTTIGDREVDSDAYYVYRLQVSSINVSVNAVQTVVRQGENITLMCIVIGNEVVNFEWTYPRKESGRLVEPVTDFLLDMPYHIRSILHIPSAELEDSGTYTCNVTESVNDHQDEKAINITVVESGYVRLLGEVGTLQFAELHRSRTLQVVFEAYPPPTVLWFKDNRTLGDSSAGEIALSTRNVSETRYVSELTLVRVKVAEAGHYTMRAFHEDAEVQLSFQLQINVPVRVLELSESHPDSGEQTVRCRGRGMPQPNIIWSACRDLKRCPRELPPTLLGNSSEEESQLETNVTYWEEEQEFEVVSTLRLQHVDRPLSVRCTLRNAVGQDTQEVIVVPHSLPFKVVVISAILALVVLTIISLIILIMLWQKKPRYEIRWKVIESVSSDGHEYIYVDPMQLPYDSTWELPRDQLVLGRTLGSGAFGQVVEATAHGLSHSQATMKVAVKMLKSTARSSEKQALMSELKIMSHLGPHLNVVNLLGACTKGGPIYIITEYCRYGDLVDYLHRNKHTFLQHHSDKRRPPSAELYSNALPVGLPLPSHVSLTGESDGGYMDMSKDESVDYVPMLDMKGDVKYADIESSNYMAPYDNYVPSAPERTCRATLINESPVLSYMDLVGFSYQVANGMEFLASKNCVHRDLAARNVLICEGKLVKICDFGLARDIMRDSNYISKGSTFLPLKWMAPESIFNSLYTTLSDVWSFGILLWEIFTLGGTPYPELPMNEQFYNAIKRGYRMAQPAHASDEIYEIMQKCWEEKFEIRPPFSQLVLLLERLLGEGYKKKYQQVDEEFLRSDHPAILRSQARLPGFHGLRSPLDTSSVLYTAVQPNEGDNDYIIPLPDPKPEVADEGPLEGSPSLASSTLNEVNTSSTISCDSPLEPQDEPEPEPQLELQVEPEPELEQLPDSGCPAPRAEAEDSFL

human VEGF receptor (VEGFR-2), sequence (P35968 786-1356): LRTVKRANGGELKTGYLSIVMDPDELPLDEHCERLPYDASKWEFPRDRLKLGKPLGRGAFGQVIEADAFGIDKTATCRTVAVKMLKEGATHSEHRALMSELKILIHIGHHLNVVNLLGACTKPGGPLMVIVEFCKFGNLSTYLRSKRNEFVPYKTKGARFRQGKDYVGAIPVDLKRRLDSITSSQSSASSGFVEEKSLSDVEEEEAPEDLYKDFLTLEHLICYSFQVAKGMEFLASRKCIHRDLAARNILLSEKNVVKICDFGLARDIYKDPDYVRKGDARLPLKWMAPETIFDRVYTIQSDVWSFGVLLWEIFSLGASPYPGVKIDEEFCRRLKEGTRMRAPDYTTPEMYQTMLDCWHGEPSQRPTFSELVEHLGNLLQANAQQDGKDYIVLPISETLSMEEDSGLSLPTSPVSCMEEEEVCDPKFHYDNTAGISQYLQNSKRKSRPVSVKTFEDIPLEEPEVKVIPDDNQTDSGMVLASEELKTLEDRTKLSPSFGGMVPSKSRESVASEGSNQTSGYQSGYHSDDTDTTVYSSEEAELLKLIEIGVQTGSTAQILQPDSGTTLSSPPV
VEGFR2, sequence (P35968 20-1356): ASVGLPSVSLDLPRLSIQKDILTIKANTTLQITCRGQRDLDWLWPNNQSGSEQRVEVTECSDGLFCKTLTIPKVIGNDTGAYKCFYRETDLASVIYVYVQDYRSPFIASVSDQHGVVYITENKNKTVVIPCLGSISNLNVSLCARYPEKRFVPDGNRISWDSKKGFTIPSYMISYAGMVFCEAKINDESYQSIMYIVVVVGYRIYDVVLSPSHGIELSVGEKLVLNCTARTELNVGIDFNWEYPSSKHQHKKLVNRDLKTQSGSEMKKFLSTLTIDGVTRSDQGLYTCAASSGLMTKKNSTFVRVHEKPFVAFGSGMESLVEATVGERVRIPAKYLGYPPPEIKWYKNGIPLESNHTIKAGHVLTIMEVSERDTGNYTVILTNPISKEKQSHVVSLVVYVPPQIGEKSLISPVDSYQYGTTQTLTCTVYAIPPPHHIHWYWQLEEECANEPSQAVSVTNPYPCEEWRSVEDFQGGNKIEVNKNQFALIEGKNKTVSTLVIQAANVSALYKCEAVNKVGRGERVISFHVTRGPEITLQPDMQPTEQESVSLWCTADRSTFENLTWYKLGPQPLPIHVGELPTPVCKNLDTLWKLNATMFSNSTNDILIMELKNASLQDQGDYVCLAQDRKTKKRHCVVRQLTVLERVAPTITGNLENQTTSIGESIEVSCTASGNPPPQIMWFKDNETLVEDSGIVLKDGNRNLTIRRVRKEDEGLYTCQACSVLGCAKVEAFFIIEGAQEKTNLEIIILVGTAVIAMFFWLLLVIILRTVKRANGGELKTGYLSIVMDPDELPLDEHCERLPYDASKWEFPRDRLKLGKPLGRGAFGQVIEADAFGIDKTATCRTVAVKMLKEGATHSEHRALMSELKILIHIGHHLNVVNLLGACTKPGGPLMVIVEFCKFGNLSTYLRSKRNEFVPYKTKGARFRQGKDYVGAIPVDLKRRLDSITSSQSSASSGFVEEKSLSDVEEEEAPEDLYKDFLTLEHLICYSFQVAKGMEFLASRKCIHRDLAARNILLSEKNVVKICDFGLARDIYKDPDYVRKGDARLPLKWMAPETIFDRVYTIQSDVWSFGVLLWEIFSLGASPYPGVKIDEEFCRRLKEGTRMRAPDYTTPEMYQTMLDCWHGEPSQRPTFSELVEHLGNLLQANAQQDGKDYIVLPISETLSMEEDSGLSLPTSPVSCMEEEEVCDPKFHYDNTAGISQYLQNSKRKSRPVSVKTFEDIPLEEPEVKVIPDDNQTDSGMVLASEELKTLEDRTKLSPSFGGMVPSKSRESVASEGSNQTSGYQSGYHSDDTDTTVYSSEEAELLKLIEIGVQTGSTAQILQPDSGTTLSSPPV

IC50 [1]	IC50 (VEGFR2)	IC50 (PDGFRβ)	SMILES
18 nM	2 nM		COC(=O)c1cc2nccc(Oc3ccc(NC(=O)Nc4cc(C)ccc4F)cc3)c2s1 [Compound F1, Methyl 7-[4-({[(2-fluoro-5-methylphenyl)amino]carbonyl}amino)phenoxy]thieno[3,2-b]pyridine-2-carboxylate]
21 nM	35 nM		COC(=O)c1cc2nccc(Oc3cccc(NC(=O)Nc4cc(C)ccc4F)c3)c2s1 [Compound F3, Methyl 7-[3-({[(2-fluoro-5-methylphenyl)amino]carbonyl}amino)phenoxy]thieno[3,2-b]pyridine-2-carboxylate]
10000 nM	10000 nM		COC(=O)c1cc2nccc(-c3ccc(NC(=O)Nc4cc(C)ccc4F)cc3)c2s1 [Compound F4, Methyl 7-[4-({[(2-fluoro-5-methylphenyl)amino]carbonyl}amino)phenyl]thieno[3,2-b]pyridine-2-carboxylate]
10000 nM	10000 nM		Cc1ccc(F)c(NC(=O)Nc2ccc(-c3ccnc4cc(C(=O)O)sc34)cc2)c1 [Compound F5, 7-[4-({[(2-fluoro-5-methylphenyl)amino]carbonyl}amino)phenyl]thieno[3,2-b]pyridine-2-carboxylic acid]
11 nM			Cc1ccc(F)c(NC(=O)Nc2ccc(Oc3ccnc4cc(C(=O)NCCC(=O)O)sc34)cc2)c1 [Compound F6, 3-[({7-[4-({[(2-fluoro-5-methylphenyl)amino]carbonyl}amino)phenoxy]thieno[3,2-b]pyridin-2-yl}carbonyl)amino]propanoic acid]
10 nM			Cc1ccc(F)c(NC(=O)Nc2ccc(Oc3ccnc4cc(C(=O)NCCC(=O)O)sc34)cc2F)c1 [Compound F7, 3-[({7-[3-fluoro-4-({[(2-fluoro-5-methylphenyl)amino]carbonyl}amino)phenoxy]thieno[3,2-b]pyridin-2-yl}carbonyl)amino]propanoic acid]
11 nM			Cc1ccc(F)c(NC(=O)Nc2ccc(Oc3ccnc4cc(C(=O)O)sc34)cc2F)c1 [Compound F8, 7-[3-fluoro-4-({[(2-fluoro-5-methylphenyl)amino]carbonyl}amino)phenoxy]thieno[3,2-b]pyridine-2-carboxylic acid]

Continued, compound first:

SMILES	IC50 [1]	IC50 (VEGFR2)	IC50 (PDGFRβ)
COC(=O)[C@@H]1C[C@@H](O)CN1CCCNC(=O)c1cc2nccc(Oc3ccc(NC(=O)Nc4cc(C)ccc4F)cc3)c2s1 (relative stereo) [Example 17, methyl rel-(2R,4S)-1-{3-[({7-[4-({[(2-fluoro-5-methylphenyl)amino]carbonyl}amino)phenoxy]thieno[3,2-b]pyridin-2-yl}carbonyl)amino]propyl}-4-hydroxypyrrolidine-2-carboxylate]	4 nM		
COC(=O)C1CCCN1CCCNC(=O)c1cc2nccc(Oc3ccc(NC(=O)Nc4cc(C)ccc4F)c(F)c3)c2s1 (centres unmarked) [Example 42, methyl 1-{3-[({7-[3-fluoro-4-({[(2-fluoro-5-methylphenyl)amino]carbonyl}amino)phenoxy]thieno[3,2-b]pyridin-2-yl}carbonyl)amino]propyl}pyrrolidine-2-carboxylate]	6 nM	4 nM	
Cc1ccc(F)c(NC(=O)Nc2ccc(Oc3ccnc4cc(C(=O)N[C@@H](CCC(=O)OC(C)(C)C)C(=O)O)sc34)cc2F)c1 [Example 48, (2S)-5-tert-butoxy-2-[({7-[3-fluoro-4-({[(2-fluoro-5-methylphenyl)amino]carbonyl}amino)phenoxy]thieno[3,2-b]pyridin-2-yl}carbonyl)amino]-5-oxopentanoic acid]	7 nM		
Cc1ccc(F)c(NC(=O)Nc2ccc(Oc3ccnc4cc(C(=O)NCCCO)sc34)cc2F)c1 [Example 53, 7-[3-fluoro-4-({[(2-fluoro-5-methylphenyl)amino]carbonyl}amino)phenoxy]-N-(3-hydroxypropyl)thieno[3,2-b]pyridine-2-carboxamide]	12 nM		
Cc1ccc(F)c(NC(=O)Nc2ccc(Oc3ccnc4cc(C(=O)N=S(C)(C)=O)sc34)cc2F)c1 [Example 58, N-[dimethyl(oxido)-lambda˜4˜-sulfanylidene]-7-[3-fluoro-4-({[(2-fluoro-5-methylphenyl)amino]carbonyl}amino)phenoxy]thieno[3,2-b]pyridine-2-carboxamide]	3 nM		
Cc1ccc(F)c(NC(=O)Nc2ccc(Oc3ccnc4cc(C(=O)N=S(C)(C)=O)sc34)cc2)c1 [Example 61, N-[dimethyl(oxido)-lambda˜4˜-sulfanylidene]-7-[4-({[(2-fluoro-5-methylphenyl)amino]carbonyl}amino)phenoxy]thieno[3,2-b]pyridine-2-carboxamide]	2 nM		
COC(=O)c1cc2nccc(Oc3cccc(NC(=O)c4occc4C)c3)c2s1 [Example 71, Methyl 7-{3-[(3-methyl-2-furoyl)amino]phenoxy}thieno[3,2-b]pyridine-2-carboxylate]	24 nM		169 nM
CCNC(=O)c1cc2nccc(Oc3cccc(NC(=O)c4occc4C)c3)c2s1 [Example 73, N-ethyl-7-{3-[(3-methyl-2-furoyl)amino]phenoxy}thieno[3,2-b]pyridine-2-carboxamide]	9 nM		191 nM
CCN(CC)C(=O)c1cc2nccc(Oc3cccc(NC(=O)c4occc4C)c3)c2s1 [Example 74, N,N-diethyl-7-{3-[(3-methyl-2-furoyl)amino]phenoxy}thieno[3,2-b]pyridine-2-carboxamide]	27 nM		424 nM
Cc1ccoc1C(=O)Nc1cccc(Oc2ccnc3cc(C(=O)NCCCO)sc23)c1 [Example 76, N-(3-hydroxypropyl)-7-{3-[(3-methyl-2-furoyl)amino]phenoxy}thieno[3,2-b]pyridine-2-carboxamide]	11 nM		146 nM
Cc1ccoc1C(=O)Nc1cccc(Oc2ccnc3cc(C(=O)NCCO)sc23)c1 [Example 77, N-(2-hydroxyethyl)-7-{3-[(3-methyl-2-furoyl)amino]phenoxy}thieno[3,2-b]pyridine-2-carboxamide]	17 nM		392 nM
Cc1ccoc1C(=O)Nc1cccc(Oc2ccnc3cc(C(=O)NCCc4nn[nH]n4)sc23)c1 [Example 78, 7-{3-[(3-methyl-2-furoyl)amino]phenoxy}-N-[2-(2H-tetrazol-5-yl)ethyl]thieno[3,2-b]pyridine-2-carboxamide]	14 nM		323 nM
Cc1ccoc1C(=O)Nc1cccc(Oc2ccnc3cc(C(=O)OCCCO)sc23)c1 [Example 79, 3-hydroxypropyl 7-{3-[(3-methyl-2-furoyl)amino]phenoxy}thieno[3,2-b]pyridine-2-carboxylate]	9 nM		146 nM
Cc1ccoc1C(=O)Nc1cccc(Oc2ccnc3cc(C(=O)OCCO)sc23)c1 [Example 80, 2-hydroxyethyl 7-{3-[(3-methyl-2-furoyl)amino]phenoxy}thieno[3,2-b]pyridine-2-carboxylate]	17 nM		212 nM
COCCOC(=O)c1cc2nccc(Oc3cccc(NC(=O)c4occc4C)c3)c2s1 [Example 81, 2-methoxyethyl 7-{3-[(3-methyl-2-furoyl)amino]phenoxy}thieno[3,2-b]pyridine-2-carboxylate]	19 nM		273 nM
COC(=O)CNCCCNC(=O)c1cc2nccc(Oc3cccc(NC(=O)c4occc4C)c3)c2s1 [Example 82, Methyl [(3-{[(7-{3-[(3-methyl-2-furoyl)amino]phenoxy}thieno[3,2-b]pyridin-2-yl)carbonyl]amino}propyl)amino]acetate]	11 nM		238 nM

Source: patent US9340555B2, “Compounds as tyrosine kinase modulators” (Allergan, Inc., priority 2009, dated 2016)
